Measured values taken from article PMC3816974 (Bioorganic & medicinal chemistry, 2013).

System: M. tuberculosis H37Rv
Format: cell-based, Mycobacterium tuberculosis
Conditions: for frequency of spontaneous resistance: M. tuberculosis H37Rv, 10× the MIC

| SMILES | resistance range of mutants above the MIC level of the parental strain | frequency of spontaneous resistance | cross-resistance of mutants resistant to 44 and 52 |
| --- | --- | --- | --- |
| COc1ccc(C(=O)Nc2nc(-c3ccccn3)cs2)cc1 [Compound 44] | 2–8 fold | ~ 10^−5 |  |
| O=C(Nc1nc(-c2ccccn2)cs1)c1cccc(Br)c1 [Compound 52] | 2–8 fold | ~ 10^−5 |  |
| CCc1cc(C(N)=S)ccn1 [ethionamide, reference compound] |  |  | not to be cross-resistant |
